Experimental data: patent US12459951B2, “Compounds that interact with RAS superfamily proteins for treatment of cancers, inflammatory diseases, rasopathies, and fibrotic disease” (SHY Therapeutics, LLC, priority 2022, dated 2025)

Experiments:
[1] = tested on: MiaPaca-2 (expressing KRAS G12C mutant); assay: Proliferation Assay (Cell Viability Assay); format: cell-based; settings: Homo sapiens, MIA PaCa-2; read-out: Proliferation in MiaPaca-2: IC50
How it was run: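 After 2–4 days' exposure at 37 °C, 5% CO2 to a single 10 μM final concentration or a dilution series (IC50), percent proliferation inhibition was derived from CellTiter 96 Aqueous One viability readings. The medium contained 0.3% DMSO and 10% FBS. KRAS G12C MiaPaca-2 cells were plated at 2000–5000/well the day before.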

KRas G12D mutant = assay: Ras GTP Binding Domain Inhibition Assay (Ras Superfamily Assay); settings: 20 μM compound; for KRas G12D mutant + SOS: % inh.: with SOS; for KRas G12D mutant: % inh.: without SOS
How it was run: (§1)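 Binding of 100 nM fluorescent GTP (Cy3 or Cy5, 45 min, room temperature) was read after washes from plate-captured His-tagged protein. Beforehand, compounds at 20 μM or in dilution series for IC50 sat 3 h on the protein in Tris buffer pH 7.4 or 7.0 with 1% DMSO, Sos GEF optionally added for the last hour.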

KRas wild type = assay: as above; settings: 20 μM compound; for KRas wild type + SOS: % inh.: with SOS; for KRas wild type: % inh.: without SOS
How it was run: as §1

Rho-A = molecular target: T1, Rho-A (Homo sapiens, UniProt P61586); assay: as above; settings: read-out: Rho-A: % inh..
T1 construct: made in house
T1 sequence (P61586 whole entry): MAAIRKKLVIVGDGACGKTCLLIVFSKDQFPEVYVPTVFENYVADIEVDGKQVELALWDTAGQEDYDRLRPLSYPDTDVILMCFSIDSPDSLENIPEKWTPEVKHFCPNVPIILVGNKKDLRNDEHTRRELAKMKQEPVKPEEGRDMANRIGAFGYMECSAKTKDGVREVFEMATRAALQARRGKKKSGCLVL
How it was run: as §1

SMILES | IC50 [1] [µM] | KRas G12D mutant + SOS: % inh. (KRas G12D mutant) | KRas G12D mutant: % inh. (KRas G12D mutant) | KRas wild type + SOS: % inh. (KRas wild type) | KRas wild type: % inh. (KRas wild type) | inhibition at 20 µM (Rho-A) [%]
COCCO[C@H]1C[C@H](Nc2nc(-c3nccn3C)nn3cc(-c4cccc(OC)c4F)c(-c4ccccc4)c23)C1 [Compound 44, 6-(2-Fluoro-3-methoxyphenyl)-N-((1r,3r)-3-(2-methoxyethoxy)cyclobutyl)-2-(1-methyl-1H-imidazol-2-yl)-5-phenylpyrrolo[2,1-f][1,2,4]triazin-4-amine] | > 1 | C (C = 50-75% inhibition) | B (B = 26-49% inhibition) | B (B = 26-49% inhibition) | 0 (0 = 0% inhibition) | 1 to 25
COc1cccc(-c2cn3nc(-c4nccn4C)nc(N[C@H]4C[C@H](OC)C4)c3c2-c2ccccc2)c1F [Compound 42, 6-(2-Fluoro-3-methoxyphenyl)-N-((1r,3r)-3-methoxycyclobutyl)-2-(1-methyl-1H-imidazol-2-yl)-5-phenylpyrrolo[2,1-f][1,2,4]triazin-4-amine] | 0.51 to 1 | 0 (0 = 0% inhibition) | 0 (0 = 0% inhibition) | 0 (0 = 0% inhibition) | 0 (0 = 0% inhibition) | 1 to 25
COC[C@@H]1CC[C@@H]1CNc1nc(-c2ccccn2)nn2cc(-c3ccn(C(C)C)n3)c(-c3ccccc3)c12 (racemic) [Compound 26, rac 6-(1-Isopropyl-1H-pyrazol-3-yl)-N-(((1S,2R)-2-(methoxymethyl)cyclobutyl)methyl)-5-phenyl-2-(pyridin-2-yl)pyrrolo[2,1-f][1,2,4]triazin-4-amine] | 0.51 to 1 | A (A = 1-25% inhibition) | 0 (0 = 0% inhibition) | 0 (0 = 0% inhibition) | A (A = 1-25% inhibition) | 1 to 25
Cc1c(-c2ccn(C(C)C)n2)cn2nc(-c3nccn3C)nc(Nc3ccncc3)c12 [Compound 52, 6-(1-Isopropyl-1H-pyrazol-3-yl)-5-methyl-2-(1-methyl-1H-imidazol-2-yl)-N-(pyridin-4-yl)pyrrolo[2,1-f][1,2,4]triazin-4-amine] | > 1 | A (A = 1-25% inhibition) | A (A = 1-25% inhibition) | A (A = 1-25% inhibition) | 0 (0 = 0% inhibition) | 0
COc1cccc(-c2cn3nc(-c4nccn4C)nc(N[C@H]4C[C@@H](OC)C4)c3c2-c2ccccc2)c1Cl [Compound 31, 6-(2-Chloro-3-methoxyphenyl)-N-((1s,3s)-3-methoxycyclobutyl)-2-(1-methyl-1H-imidazol-2-yl)-5-phenylpyrrolo[2,1-f][1,2,4]triazin-4-amine] | > 1 | B (B = 26-49% inhibition) | A (A = 1-25% inhibition) | 0 (0 = 0% inhibition) | A (A = 1-25% inhibition) | 1 to 25
COCCNc1nc(-c2nccn2C)nn2cc(-c3ccn(C(C)C)n3)c(C(C)C)c12 [Compound 35, 5-Isopropyl-6-(1-isopropyl-1H-pyrazol-3-yl)-N-(2-methoxyethyl)-2-(1-methyl-1H-imidazol-2-yl)pyrrolo[2,1-f][1,2,4]triazin-4-amine] | > 1 | 0 (0 = 0% inhibition) | 0 (0 = 0% inhibition) | A (A = 1-25% inhibition) | A (A = 1-25% inhibition) | 1 to 25

Continued, values first:

IC50 [1] [µM] | KRas G12D mutant + SOS: % inh. (KRas G12D mutant) | KRas G12D mutant: % inh. (KRas G12D mutant) | KRas wild type + SOS: % inh. (KRas wild type) | KRas wild type: % inh. (KRas wild type) | inhibition at 20 µM (Rho-A) [%] | SMILES
> 1 | D (D = 76-100% inhibition) | D (D = 76-100% inhibition) | C (C = 50-75% inhibition) | C (C = 50-75% inhibition) | 76 to 100 | Cc1c(-c2ccn(C(C)C)n2)cn2nc(-c3nccn3C)nc(Nc3ccn(C(C)C)n3)c12 [Compound 72, N,6-bis(1-Isopropyl-1H-pyrazol-3-yl)-5-methyl-2-(1-methyl-1H-imidazol-2-yl)pyrrolo[2,1-f][1,2,4]triazin-4-amine]
0.15 to 0.5 | B (B = 26-49% inhibition) | B (B = 26-49% inhibition) | 0 (0 = 0% inhibition) | B (B = 26-49% inhibition) | 50 to 75 | COc1cnc(Nc2nc(-c3nccn3C)nn3cc(-c4ccn(C(C)C)n4)c(C)c23)nc1 [Compound 56, 6-(1-Isopropyl-1H-pyrazol-3-yl)-N-(5-methoxypyrimidin-2-yl)-5-methyl-2-(1-methyl-1H-imidazol-2-yl)pyrrolo[2,1-f][1,2,4]triazin-4-amine]
> 1 | C (C = 50-75% inhibition) | C (C = 50-75% inhibition) | C (C = 50-75% inhibition) | C (C = 50-75% inhibition) | 76 to 100 | Cc1c(-c2ccn(C(C)C)n2)cn2nc(-c3nccn3C)nc(Nc3nnc(C4CC4)o3)c12 [Compound 67, 5-Cyclopropyl-N-(6-(1-isopropyl-1H-pyrazol-3-yl)-5-methyl-2-(1-methyl-1H-imidazol-2-yl)pyrrolo[2,1-f][1,2,4]triazin-4-yl)-1,3,4-oxadiazol-2-amine]
< 0.15 | B (B = 26-49% inhibition) | C (C = 50-75% inhibition) | B (B = 26-49% inhibition) | C (C = 50-75% inhibition) | 76 to 100 | COc1cncnc1Nc1nc(-c2nccn2C)nn2cc(-c3ccn(C(C)C)n3)c(C)c12 [Compound 73, 6-(1-Isopropyl-1H-pyrazol-3-yl)-N-(5-methoxypyrimidin-4-yl)-5-methyl-2-(1-methyl-1H-imidazol-2-yl)pyrrolo[2,1-f][1,2,4]triazin-4-amine]
< 0.15 | D (D = 76-100% inhibition) | D (D = 76-100% inhibition) | D (D = 76-100% inhibition) | D (D = 76-100% inhibition) | 76 to 100 | Cc1c(-c2ccn(C(C)C)n2)cn2nc(-c3nccn3C)nc(Nc3cc(C4CC4)n[nH]3)c12 [Compound 68, N-(3-Cyclopropyl-1H-pyrazol-5-yl)-6-(1-isopropyl-1H-pyrazol-3-yl)-5-methyl-2-(1-methyl-1H-imidazol-2-yl)pyrrolo[2,1-f][1,2,4]triazin-4-amine]
0.51 to 1 | D (D = 76-100% inhibition) | D (D = 76-100% inhibition) | D (D = 76-100% inhibition) | D (D = 76-100% inhibition) | 76 to 100 | Cc1c(-c2ccn(C(C)C)n2)cn2nc(-c3nccn3C)nc(Nc3ccn(C)n3)c12 [Compound 61, 6-(1-Isopropyl-1H-pyrazol-3-yl)-5-methyl-2-(1-methyl-1H-imidazol-2-yl)-N-(1-methyl-1H-pyrazol-3-yl)pyrrolo[2,1-f][1,2,4]triazin-4-amine]
> 1 | A (A = 1-25% inhibition) | A (A = 1-25% inhibition) | 0 (0 = 0% inhibition) | A (A = 1-25% inhibition) | 1 to 25 | Cc1c(-c2ccn(C(C)C)n2)cn2nc(-c3nccn3C)nc(Nc3cc(C4CC4)no3)c12 [Compound 69, 3-Cyclopropyl-N-(6-(1-isopropyl-1H-pyrazol-3-yl)-5-methyl-2-(1-methyl-1H-imidazol-2-yl)pyrrolo[2,1-f][1,2,4]triazin-4-yl)isoxazol-5-amine]
< 0.15 | C (C = 50-75% inhibition) | C (C = 50-75% inhibition) | C (C = 50-75% inhibition) | C (C = 50-75% inhibition) | 76 to 100 | COc1ccnc(Nc2nc(-c3nccn3C)nn3cc(-c4ccn(C(C)C)n4)c(C)c23)n1 [Compound 53, 6-(1-Isopropyl-1H-pyrazol-3-yl)-N-(4-methoxypyrimidin-2-yl)-5-methyl-2-(1-methyl-1H-imidazol-2-yl)pyrrolo[2,1-f][1,2,4]triazin-4-amine]
